Key:
cyclooxygenase-1 = cyclooxygenase-1 (Homo sapiens, UniProt P23219); assay: Inhibitory action on cyclooxygenase-1 (conversion of 14C arachidonic acid to PGH2); format: biochemical; settings: enzyme prepared from human platelets; preincubation 24° C. 5 minutes; read-out: IC50 COX-1
Protocol: (§1) The enzymatic activity was determined from the percent conversion of ^14C arachidonic acid into prostaglandin H2 (PGH2) and the decomposed product thereof. That is, a test sample (20 μl), an enzyme solution (20 μl) and distilled water (10 μl) were added to 100 mM Tris-HCl buffer (pH 8, 140 μl) containing hematin (2 μM) and tryptophan (5 mM), and the mixture was thoroughly stirred, which was followed by preincubation at 24° C. for 5 minutes. Then, a ^14C arachidonic acid solution (10 μl) was added and the mixture was reacted at 24° C., whereafter a solution (40 μl) of ethyl ether/methanol/1M citric acid (30/4/1) iceooled to −20° C. was added to stop the reaction. The reaction mixture was centrifuged for 5 minutes at 3,000 rpm to give an ether layer which was placed on a thin plate, and developed with ethyl ether/methanol/acetic acid (90/2/0.1) to determine percent conversion (A) from arachidonic acid to PGH2 and the decomposed product thereof.
Inhibition (%)=(1A/B)×100
(§2) An enzyme prepared from human platelets was used as an enzyme solution of cyclooxygenase-1, and an enzyme expressed by a yeast, into which cDNA of human cyclooxygenase-2 had been introduced using a kit of Invitrogen Corp., was used as an enzyme solution of cyclooxygenase-2.

[1] = tested on: carrageenin-induced podedema; assay: Effects on carrageenin-induced podedema in rats; format: in vivo, male Donryu rats; settings: oral dose one hour before carrageenin; limb volume 3 hours after carrageenin; dose inhibiting by 30% relative to control
Protocol: Experimental Example 2 (effects on carrageen in induced podedema) Carrageenin (1%, 0.05 ml) dissolved in physiological saline was subcutaneously injected to the left hindlimb of male Donryu rats to induce podedema. The degree of podedema was evaluated by measuring the volume of the limb 3 hours after carrageenin administration. A test compound (1, 3, 10 or 30 mg/kg) was orally administered one hour before carrageenin administration, and suppression thereby was studied. Inhibitory activity was expressed by the dose (ED30) of the test compound necessary for inhibiting by 30% relative to the control group.

human cyclooxygenase-2 = molecular target: T1, human cyclooxygenase-2 (Homo sapiens, UniProt P35354); assay: Inhibitory action on cyclooxygenase-2 (conversion of 14C arachidonic acid to PGH2)
T1 sequence (P35354 18-604): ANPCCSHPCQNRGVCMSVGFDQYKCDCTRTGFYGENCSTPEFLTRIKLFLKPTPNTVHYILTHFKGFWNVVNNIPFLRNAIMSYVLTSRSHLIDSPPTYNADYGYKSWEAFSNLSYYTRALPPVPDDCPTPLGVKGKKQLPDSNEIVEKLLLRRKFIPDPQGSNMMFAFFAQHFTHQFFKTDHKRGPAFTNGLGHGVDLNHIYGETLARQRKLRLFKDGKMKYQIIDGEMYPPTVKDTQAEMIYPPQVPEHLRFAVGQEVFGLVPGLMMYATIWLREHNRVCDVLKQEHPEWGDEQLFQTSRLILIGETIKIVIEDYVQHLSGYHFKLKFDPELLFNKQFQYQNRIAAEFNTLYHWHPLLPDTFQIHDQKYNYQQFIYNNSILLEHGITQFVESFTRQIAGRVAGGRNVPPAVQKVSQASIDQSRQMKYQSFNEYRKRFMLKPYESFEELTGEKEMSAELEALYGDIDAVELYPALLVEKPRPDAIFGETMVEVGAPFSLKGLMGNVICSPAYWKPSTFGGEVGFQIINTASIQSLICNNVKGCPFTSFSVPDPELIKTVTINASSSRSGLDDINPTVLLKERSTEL
Protocol: as §1
Inhibition (%)=(1A/B)×100
as §2

Sequence of cyclooxygenase-1 (P23219 24-599): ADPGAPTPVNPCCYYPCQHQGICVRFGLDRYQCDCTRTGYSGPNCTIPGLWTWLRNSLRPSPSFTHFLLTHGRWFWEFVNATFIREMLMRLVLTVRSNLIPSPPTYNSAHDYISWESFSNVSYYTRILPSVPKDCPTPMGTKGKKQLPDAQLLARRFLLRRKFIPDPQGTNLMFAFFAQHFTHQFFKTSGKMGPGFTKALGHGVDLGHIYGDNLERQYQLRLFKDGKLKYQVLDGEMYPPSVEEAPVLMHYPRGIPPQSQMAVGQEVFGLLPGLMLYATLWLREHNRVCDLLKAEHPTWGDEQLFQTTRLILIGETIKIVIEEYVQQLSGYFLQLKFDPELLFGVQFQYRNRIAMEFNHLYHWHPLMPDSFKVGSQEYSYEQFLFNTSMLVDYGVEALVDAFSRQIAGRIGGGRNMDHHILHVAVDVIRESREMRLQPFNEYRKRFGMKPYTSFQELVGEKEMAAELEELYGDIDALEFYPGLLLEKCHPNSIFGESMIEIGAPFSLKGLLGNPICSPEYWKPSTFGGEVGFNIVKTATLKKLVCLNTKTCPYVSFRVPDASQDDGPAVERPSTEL

SMILES | IC50 (cyclooxygenase-1) [nM] | carrageenin-induced podedema in rats, ED30 [1] [mg/kg p.o.] | IC50 (human cyclooxygenase-2) [nM]
Cc1nc(C2CCCCC2)c(-c2ccc(S(N)(=O)=O)c(F)c2)o1 [Example 2, 5-(4-aminosulfonyl-3-fluorophenyl)-4-cyclohexyl-2-methyloxazole] | – | 5.5 | 70
Cc1nc(C2CCCCC2)c(-c2ccc(S(C)(=O)=O)c(F)c2)o1 [Example 3, 4-cyclohexyl-5-(3-fluoro-4-methylsulfonylphenyl)-2-methyloxazole] | > 100000 | – | 300
Cc1nc(-c2ccc(F)cc2)c(-c2ccc(S(N)(=O)=O)c(F)c2)o1 [Example 7, 5-(4-aminosulfonyl-3-fluorophenyl)-4-(4-fluorophenyl)-2-methyloxazole] | 37000 | – | 30
COc1ccc2c(c1)c(CC(=O)O)c(C)n2C(=O)c1ccc(Cl)cc1 [Indomethacin, reference compound] | – | 2.9 | –

The next lines start with results.

IC50 (cyclooxygenase-1) [nM] | SMILES | carrageenin-induced podedema in rats, ED30 [1] [mg/kg p.o.] | IC50 (human cyclooxygenase-2) [nM]
45000 | Cc1nc(C2CCCCC2)c(-c2ccc(S(N)(=O)=O)cc2)o1 [Control 1, reference compound] | – | –
> 100000 | Cc1nc(C2CCCCC2)c(-c2cc(F)c(S(N)(=O)=O)c(F)c2)o1 [Example 6] | – | 160

From patent publication US6362209B1, “Heterocyclic aromatic oxazole compounds and use thereof” (Japan Tobacco Inc., priority 1994, dated 2002)
